Laboratory results taken from patent US5140014A (Abbott Laboratories, priority 1989, dated 1992).
Values after ≈ are worked out from the molar mass of the structure shown. Like-named read-outs stand apart in the source and are kept apart here.

How the values were obtained:
Assay in all cases: in vitro antibacterial activity, agar dilution method (MIC)
Format in all cases: cell-based
Acinetobacter Sp = conditions: strain CMX 669, BHI agar, 20-24 hours
Method in brief: (§1)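 Agar dilution in Brain Heart Infusion agar, usually 12 two-fold dilutions from a 2,000 ug/mL stock. Overnight BHI broth cultures were diluted 1:100 (1:10 for slow growers such as Streptococcus), and ~10^4 organisms were spotted per plate. MIC read after 20-24 h at 35°-37° C as lowest concentration giving no growth, slight haze or sparse colonies versus growth control.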

Enterobacter Aerogenes = conditions: BHI agar, 20-24 hours
Method in brief: as §1

Enterococcus Faecium = conditions: BHI agar, 20-24 hours
Method in brief: as §1

Haemophilus Influenzae = conditions: BHI agar, 20-24 hours
Method in brief: as §1

Klebsiella Pneumoniae = conditions: BHI agar, 20-24 hours
Method in brief: as §1

Micrococcus Luteus = conditions: BHI agar, 20-24 hours
Method in brief: as §1

Providencia Stuartii = conditions: strain CMX 640, BHI agar, 20-24 hours
Method in brief: as §1

Pseudomonas Aeruginosa = conditions: BHI agar, 20-24 hours
Method in brief: as §1

Staphylococcus Aureus = conditions: BHI agar, 20-24 hours
Method in brief: as §1

[1] = system: Staphylococcus Epidermidis; conditions: strain 3519, BHI agar, 20-24 hours
Method in brief: as §1

Streptococcus Agalactiae = conditions: strain CMX 508, BHI agar, 20-24 hours
Method in brief: as §1

Streptococcus Bovis = conditions: strain A5169, BHI agar, 20-24 hours
Method in brief: as §1

Streptococcus Pyogenes = conditions: BHI agar, 20-24 hours
Method in brief: as §1

Escherichia Coli = conditions: BHI agar, 20-24 hours
Method in brief: (§2)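 Agar dilution on BHI agar, typically 12 two-fold dilutions prepared from a 2,000 ug/mL stock solution. Plates were spot-inoculated with about 10^4 organisms from overnight BHI broth cultures, then incubated 20-24 h at 35°-37° C. MIC was the lowest concentration giving no growth, a slight haze or sparse isolated colonies compared with the growth control.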

Pseudomonas Cepacia = conditions: strain 296I, BHI agar, 20-24 hours
Method in brief: as §2

SMILES: CCC1OC(=O)CC(O)C(C)C(OC2OC(C)C(O)C(N(C)C)C2O)C(CC=O)CC(C)C(N(C)C)CCC(C)=CC1COC(C)=O (stereo not shown) [Example 6, [9R]-23-O-Acetyl-9-deoxo-10,11-dihydro-9-N,N-dimethylamino-5-O-mycaminosyl-tylonide]
- MIC (Acinetobacter Sp; Acinetobacter, read-out: MIC): > 100 µg/mL
- MIC (Enterobacter Aerogenes; Klebsiella aerogenes, ATCC13048, strain ATCC 13048, read-out: MIC): > 100 µg/mL
- MIC (Enterococcus Faecium; Enterococcus faecium, ATCC8043, strain ATCC 8043, read-out: MIC): 1.56 µg/mL (≈ 2.33 µM)
- MIC (Haemophilus Influenzae; Haemophilus influenzae, ATCC9795, strain ATCC 9795, read-out: MIC): 4 µg/mL (≈ 5.96 µM)
- MIC (Haemophilus Influenzae; Haemophilus influenzae, ATCC10211, strain ATCC 10211, read-out: MIC): 4 µg/mL (≈ 5.96 µM)
- MIC (Haemophilus Influenzae; Haemophilus influenzae, ATCC19418, strain ATCC 19418, read-out: MIC): 8 µg/mL (≈ 11.9 µM)
- MIC (Haemophilus Influenzae; Haemophilus influenzae, strain 504, read-out: MIC): 2 µg/mL (≈ 2.98 µM)
- MIC (Haemophilus Influenzae; Haemophilus influenzae, strain 519A, read-out: MIC): 2 µg/mL (≈ 2.98 µM)
- MIC (Haemophilus Influenzae; Haemophilus influenzae, strain 566A, read-out: MIC): 8 µg/mL (≈ 11.9 µM)
- MIC (Haemophilus Influenzae; Haemophilus influenzae, strain 632A, read-out: MIC): 8 µg/mL (≈ 11.9 µM)
- MIC (Haemophilus Influenzae; Haemophilus influenzae, strain 747C, read-out: MIC): 8 µg/mL (≈ 11.9 µM)
- MIC (Haemophilus Influenzae; Haemophilus influenzae, strain 751, read-out: MIC): > 16 µg/mL
- MIC (Haemophilus Influenzae; Haemophilus influenzae, strain 1177, read-out: MIC): 0.25 µg/mL (≈ 0.373 µM)
- MIC (Haemophilus Influenzae; Haemophilus influenzae, strain 1435, read-out: MIC): 4 µg/mL (≈ 5.96 µM)
- MIC (Haemophilus Influenzae; Haemophilus influenzae, strain DILL AMP R, read-out: MIC): 4 µg/mL (≈ 5.96 µM)
- MIC (Haemophilus Influenzae; Haemophilus influenzae, strain SOL AMP R, read-out: MIC): 8 µg/mL (≈ 11.9 µM)
- MIC (Haemophilus Influenzae; Haemophilus influenzae, strain SPK AMP R, read-out: MIC): 8 µg/mL (≈ 11.9 µM)
- MIC (Haemophilus Influenzae; strain 503B): 8 µg/mL (≈ 11.9 µM)
- MIC (Haemophilus Influenzae; strain ATCC 43095): 8 µg/mL (≈ 11.9 µM)
- MIC (Klebsiella Pneumoniae; Klebsiella pneumoniae, ATCC8045, strain ATCC 8045, read-out: MIC): > 100 µg/mL
- MIC (Micrococcus Luteus; Micrococcus luteus, ATCC4698, strain ATCC 4698, read-out: MIC): 1.56 µg/mL (≈ 2.33 µM)
- MIC (Micrococcus Luteus; Micrococcus luteus, ATCC9341, strain ATCC 9341, read-out: MIC): 0.78 µg/mL (≈ 1.16 µM)
- MIC (Providencia Stuartii; Providencia stuartii, read-out: MIC): > 100 µg/mL
- MIC (Pseudomonas Aeruginosa; Pseudomonas aeruginosa, strain A5007, read-out: MIC): > 100 µg/mL
- MIC (Pseudomonas Aeruginosa; Pseudomonas aeruginosa, strain BMH10, read-out: MIC): > 100 µg/mL
- MIC (Pseudomonas Aeruginosa; Pseudomonas aeruginosa, strain K799/61, read-out: MIC): 6.2 µg/mL (≈ 9.24 µM)
- MIC (Pseudomonas Aeruginosa; Pseudomonas aeruginosa, strain K799/WT, read-out: MIC): > 100 µg/mL
- MIC (Staphylococcus Aureus; Staphylococcus aureus, ATCC6538P, strain ATCC 6538P, read-out: MIC): 3.1 µg/mL (≈ 4.62 µM)
- MIC (Staphylococcus Aureus; Staphylococcus aureus, NCTC10649, strain NCTC 10649, read-out: MIC): 3.1 µg/mL (≈ 4.62 µM)
- MIC (Staphylococcus Aureus; Staphylococcus aureus, strain 45, read-out: MIC): 3.1 µg/mL (≈ 4.62 µM)
- MIC (Staphylococcus Aureus; Staphylococcus aureus, strain 45 RAR2, read-out: MIC): 6.2 µg/mL (≈ 9.24 µM)
- MIC (Staphylococcus Aureus; Staphylococcus aureus, strain 642A, read-out: MIC): 6.2 µg/mL (≈ 9.24 µM)
- MIC (Staphylococcus Aureus; Staphylococcus aureus, strain A5177, read-out: MIC): 3.1 µg/mL (≈ 4.62 µM)
- MIC (Staphylococcus Aureus; Staphylococcus aureus, strain CMX 553, read-out: MIC): 6.2 µg/mL (≈ 9.24 µM)
- MIC ([1]; Staphylococcus epidermidis, read-out: MIC): 3.1 µg/mL (≈ 4.62 µM)
- MIC (Streptococcus Agalactiae; Streptococcus agalactiae, read-out: MIC): 0.39 µg/mL (≈ 0.581 µM)
- MIC (Streptococcus Bovis; Streptococcus equinus, read-out: MIC): 0.1 µg/mL (≈ 0.149 µM)
- MIC (Streptococcus Pyogenes; Streptococcus pyogenes, strain 930 CONST, read-out: MIC): > 100 µg/mL
- MIC (Streptococcus Pyogenes; Streptococcus pyogenes, strain 2548 INDUC, read-out: MIC): 3.1 µg/mL (≈ 4.62 µM)
- MIC (Streptococcus Pyogenes; Streptococcus pyogenes, strain EES61, read-out: MIC): 0.39 µg/mL (≈ 0.581 µM)
- MIC (Escherichia Coli; Escherichia coli, strain DC-2, read-out: MIC): 100 µg/mL (≈ 149 µM)
- MIC (Escherichia Coli; Escherichia coli, strain JUHL, read-out: MIC): > 100 µg/mL
- MIC (Escherichia Coli; Escherichia coli, strain KNK 437, read-out: MIC): > 100 µg/mL
- MIC (Escherichia Coli; Escherichia coli, strain SS, read-out: MIC): 1.56 µg/mL (≈ 2.33 µM)
- MIC (Escherichia Coli; strain H560): 50 µg/mL (≈ 74.5 µM)
- MIC (Pseudomonas Cepacia; Burkholderia cepacia, read-out: MIC): > 100 µg/mL

SMILES: CCC1OC(=O)CC(O)C(C)C(OC2OC(C)C(O)C(N(C)C)C2O)C(CC=O)CC(C)C(N(C)C)CCC(C)=CC1COC(C)=O (stereo not shown) [Example 7, [9S]-23-O-Acetyl-9-deoxo-10,11-dihydro-9-N,N-dimethylamino-5-O-mycaminosyl-tylonide]
- MIC (Acinetobacter Sp): 50 µg/mL (≈ 74.5 µM)
- MIC (Enterobacter Aerogenes; strain ATCC 13048): > 100 µg/mL
- MIC (Enterococcus Faecium; strain ATCC 8043): 1.56 µg/mL (≈ 2.33 µM)
- MIC (Haemophilus Influenzae; Haemophilus influenzae, strain 588A, read-out: MIC): 4 µg/mL (≈ 5.96 µM)
- MIC (Haemophilus Influenzae; strain 503B): 2 µg/mL (≈ 2.98 µM)
- MIC (Haemophilus Influenzae; strain 519A): 1 µg/mL (≈ 1.49 µM)
- MIC (Haemophilus Influenzae; strain 566A): 4 µg/mL (≈ 5.96 µM)
- MIC (Haemophilus Influenzae; strain 747C): 4 µg/mL (≈ 5.96 µM)
- MIC (Haemophilus Influenzae; strain 751): 16 µg/mL (≈ 23.8 µM)
- MIC (Haemophilus Influenzae; strain 1177): 0.5 µg/mL (≈ 0.745 µM)
- MIC (Haemophilus Influenzae; strain 1435): 4 µg/mL (≈ 5.96 µM)
- MIC (Haemophilus Influenzae; strain ATCC 9795): 4 µg/mL (≈ 5.96 µM)
- MIC (Haemophilus Influenzae; strain ATCC 10211): 4 µg/mL (≈ 5.96 µM)
- MIC (Haemophilus Influenzae; strain ATCC 19418): 4 µg/mL (≈ 5.96 µM)
- MIC (Haemophilus Influenzae; strain ATCC 43095): 2 µg/mL (≈ 2.98 µM)
- MIC (Haemophilus Influenzae; strain DILL AMP R): 4 µg/mL (≈ 5.96 µM)
- MIC (Haemophilus Influenzae; strain SOL AMP R): 4 µg/mL (≈ 5.96 µM)
- MIC (Haemophilus Influenzae; strain SPK AMP R): 4 µg/mL (≈ 5.96 µM)
- MIC (Klebsiella Pneumoniae; strain ATCC 8045): 100 µg/mL (≈ 149 µM)
- MIC (Micrococcus Luteus; strain ATCC 4698): 1.56 µg/mL (≈ 2.33 µM)
- MIC (Micrococcus Luteus; strain ATCC 9341): 0.78 µg/mL (≈ 1.16 µM)
- MIC (Providencia Stuartii): > 100 µg/mL
- MIC (Pseudomonas Aeruginosa; strain A5007): > 100 µg/mL
- MIC (Pseudomonas Aeruginosa; strain BMH10): 100 µg/mL (≈ 149 µM)
- MIC (Pseudomonas Aeruginosa; strain K799/61): 3.1 µg/mL (≈ 4.62 µM)
- MIC (Pseudomonas Aeruginosa; strain K799/WT): > 100 µg/mL
- MIC (Staphylococcus Aureus; strain 45): 3.1 µg/mL (≈ 4.62 µM)
- MIC (Staphylococcus Aureus; strain 45 RAR2): 6.2 µg/mL (≈ 9.24 µM)
- MIC (Staphylococcus Aureus; strain 642A): 6.2 µg/mL (≈ 9.24 µM)
- MIC (Staphylococcus Aureus; strain A5177): 6.2 µg/mL (≈ 9.24 µM)
- MIC (Staphylococcus Aureus; strain ATCC 6538P): 6.2 µg/mL (≈ 9.24 µM)
- MIC (Staphylococcus Aureus; strain CMX 553): 6.2 µg/mL (≈ 9.24 µM)
- MIC (Staphylococcus Aureus; strain NCTC 10649): 6.2 µg/mL (≈ 9.24 µM)
- MIC [1]: 1.56 µg/mL (≈ 2.33 µM)
- MIC (Streptococcus Agalactiae): 0.39 µg/mL (≈ 0.581 µM)
- MIC (Streptococcus Bovis): 0.1 µg/mL (≈ 0.149 µM)
- MIC (Streptococcus Pyogenes; strain 930 CONST): > 100 µg/mL
- MIC (Streptococcus Pyogenes; strain 2548 INDUC): 1.56 µg/mL (≈ 2.33 µM)
- MIC (Streptococcus Pyogenes; strain EES61): 0.78 µg/mL (≈ 1.16 µM)
- MIC (Escherichia Coli; strain DC-2): 50 µg/mL (≈ 74.5 µM)
- MIC (Escherichia Coli; strain H560): 12.5 µg/mL (≈ 18.6 µM)
- MIC (Escherichia Coli; strain JUHL): 100 µg/mL (≈ 149 µM)
- MIC (Escherichia Coli; strain KNK 437): 50 µg/mL (≈ 74.5 µM)
- MIC (Escherichia Coli; strain SS): 0.78 µg/mL (≈ 1.16 µM)
- MIC (Pseudomonas Cepacia): > 100 µg/mL
